Assay results reported in patent publication US9321756B2, “Azole compounds as PIM inhibitors” (priority 2011, dated 2016).
Read-outs that look alike come from different tables or passages of the source.

Key:
[1] = target: full length recombinant Pim-3 (Homo sapiens (Human), UniProt Q86V86); assay: Pim enzyme assay (HTRF, phosphorylation of biotinylated-BAD (S112) peptide), Pim-3; type: biochemical; details: read-out: Pim3 IC50
Procedure, shortened: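 Full-length recombinant Pim-3 phosphorylated biotinylated BAD (S112) peptide in 60 mM Hepes pH 7.0, 0.05% BSA, 2 mM DTT for 1 h 30 min at 22 °C. After EDTA stop, HTRF was read with Eu anti-phospho-BAD and streptavidin-APC. IC50 came from 4-parameter logistic fit of percent-of-control values.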

[2] = target: full length recombinant Pim-1 (Homo sapiens (Human), UniProt P11309); assay: Pim enzyme assay (HTRF, phosphorylation of biotinylated-BAD (S112) peptide), Pim-1; type: biochemical; details: Pim-1 enzyme assay; read-out: Pim_1_IC50
[3] = target: full length recombinant Pim-2 (Homo sapiens (Human), UniProt Q9P1W9); assay: Pim enzyme assay (HTRF, phosphorylation of biotinylated-BAD (S112) peptide), Pim-2; type: biochemical; details: read-out: Pim2_IC50
[4] = system: Pim-1 stably transfected U2OS human osteogenic sarcoma line; assay: Pim cell assay U2OS (phospho-BAD normalized against total BAD), Pim-1 transfected; type: cell-based; details: Homo sapiens, U2OS
[5] = system: Pim-2 stably transfected U2OS human osteogenic sarcoma line; assay: Pim cell assay U2OS (phospho-BAD normalized against total BAD), Pim-2 transfected; type: cell-based; details: Homo sapiens, read-out: U2OS Pim2_Cell_IC50
[6] = read-out: U2OS Pim1_Cell_IC50, U2OS cells, Pim-1 transfected

full length recombinant Pim-2, sequence (Q9P1W9 whole entry): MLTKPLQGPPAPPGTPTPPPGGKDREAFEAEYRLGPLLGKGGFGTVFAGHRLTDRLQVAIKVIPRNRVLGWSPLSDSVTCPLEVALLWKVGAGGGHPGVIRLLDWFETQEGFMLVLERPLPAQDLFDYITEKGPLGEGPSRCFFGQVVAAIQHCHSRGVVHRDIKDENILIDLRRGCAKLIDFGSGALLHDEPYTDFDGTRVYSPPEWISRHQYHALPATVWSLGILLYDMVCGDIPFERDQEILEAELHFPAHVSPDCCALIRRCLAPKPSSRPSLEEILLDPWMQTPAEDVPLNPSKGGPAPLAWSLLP
full length recombinant Pim-1, sequence (P11309 whole entry): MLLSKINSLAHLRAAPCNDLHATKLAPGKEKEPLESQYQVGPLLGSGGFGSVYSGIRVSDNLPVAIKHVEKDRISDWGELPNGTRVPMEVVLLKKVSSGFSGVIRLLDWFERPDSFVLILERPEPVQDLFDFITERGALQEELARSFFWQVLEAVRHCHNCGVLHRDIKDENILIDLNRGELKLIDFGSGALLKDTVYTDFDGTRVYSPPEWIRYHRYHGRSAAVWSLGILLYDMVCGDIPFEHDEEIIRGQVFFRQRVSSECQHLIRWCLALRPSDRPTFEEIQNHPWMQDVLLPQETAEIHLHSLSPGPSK

SMILES | IC50 [2] | IC50 ([1]; Pim-3 enzyme assay) | IC50 ([3]; Pim-2 enzyme assay) | IC50 [1] | IC50 [3] | IC50 [4, 6] | IC50 ([5]; U2OS) | IC50 ([4]; read-out: U2OS Pim1_Cell_IC50) | IC50 ([5]; U2OS cells, Pim-2 transfected)
CC(C)Oc1cccc(-c2c[nH]c3ccc(-c4nnc(N5CC[C@@H](N)C5)s4)cc23)n1 [Example 33, (R)-1-(5-(3-(6-Isopropoxypyridin-2-yl)-1H-indol-5-yl)-1,3,4-thiadiazol-2-yl)pyrrolidin-3-amine 2,2,2-trifluoroacetate] | 8.84 nM |  |  | 1.32 nM | 16.7 nM | 328 nM | 19500 nM |  | 
CC(C)Oc1cccc(-c2c[nH]c3ccc(-c4nnc(N5CC[C@H](N)C5)s4)cc23)n1 [Example 34, (S)-1-(5-(3-(6-Isopropoxypyridin-2-yl)-1H-indol-5-yl)-1,3,4-thiadiazol-2-yl)pyrrolidin-3-amine 2,2,2-trifluoroacetate] | 10.5 nM |  |  | 1.51 nM | 24.8 nM | 280 nM | > 31600 nM |  | 
Cc1nnc(-c2ccc3[nH]cc(-c4cccc(OC(C)C)n4)c3c2)o1 [Example 42, 2-(3-(6-isopropoxypyridin-2-yl)-1H-indol-5-yl)-5-methyl-1,3,4-oxadiazole] | 21.2 nM | 10 nM | 38.6 nM |  |  |  |  | 273 nM | 15600 nM
CC(C)Nc1nnc(-c2ccc3[nH]cc(-c4cncc(C5CC5)n4)c3c2)o1 [Example 46, 5-(3-(6-cyclopropylpyrazin-2-yl)-1H-indol-5-yl)-N-isopropyl-1,3,4-oxadiazol-2-amine] | 1.39 nM | 0.498 nM | 4.25 nM |  |  |  |  | 32.1 nM | 827 nM
c1cc2[nH]cc(-c3cncc(C4CC4)n3)c2cc1-c1nnc(NC2CC2)o1 [Example 49, N-cyclopropyl-5-(3-(6-cyclopropylpyrazin-2-yl)-1H-indol-5-yl)-1,3,4-oxadiazol-2-amine] | 3.43 nM | 1.82 nM | 7.64 nM |  |  |  |  | 83.4 nM | 2680 nM
CN1CCN(c2cccc(-c3c[nH]c4ccc(-c5nnc(N)o5)cc34)n2)CC1 [Example 75, 5-(3-(6-(4-methyl-1-piperazinyl)-2-pyridinyl)-1H-indol-5-yl)-1,3,4-oxadiazol-2-amine] | 3.82 nM | 2.54 nM | 6.87 nM |  |  |  |  | 173 nM | 2350 nM
CC(C)Oc1cncc(-c2c[nH]c3ccc(-c4nnc(N)o4)cc23)n1 [Example 76, 5-(3-(6-(1-methylethoxy)-2-pyrazinyl)-1H-indol-5-yl)-1,3,4-oxadiazol-2-amine] | 5.59 nM | 2.47 nM | 5.18 nM |  |  |  |  | 35.8 nM | 636 nM
Nc1nnc(-c2ccc3[nH]cc(-c4cccc(-n5cccn5)n4)c3c2)o1 [Example 77, 5-(3-(6-(1H-pyrazol-1-yl)-2-pyridinyl)-1H-indol-5-yl)-1,3,4-oxadiazol-2-amine] | 11.9 nM | 4.13 nM | 13.7 nM |  |  | 112 nM |  |  | 1890 nM
Nc1nnc(-c2ccc3[nH]cc(-c4cccc(F)c4F)c3c2)o1 [Example 78, 5-(3-(2,3-difluorophenyl)-1H-indol-5-yl)-1,3,4-oxadiazol-2-amine] | 103 nM | 54.3 nM | 164 nM |  |  |  |  | 1110 nM | 18700 nM
CC(C)Cn1cc(-c2c[nH]c3ccc(-c4nnc(N)o4)cc23)cn1 [Example 80, 5-(3-(1-(2-methylpropyl)-1H-pyrazol-4-yl)-1H-indol-5-yl)-1,3,4-oxadiazol-2-amine] | 47 nM | 67.1 nM | 78 nM |  |  |  |  | 142 nM | 3660 nM
CC(C)Oc1ccc(F)c(-c2c[nH]c3ccc(-c4nnc(N)o4)cc23)c1 [Example 83, 5-(3-(2-fluoro-5-(1-methylethoxy)phenyl)-1H-indol-5-yl)-1,3,4-oxadiazol-2-amine] | 59.3 nM | 36.2 nM | 193 nM |  |  | 725 nM |  |  | 18500 nM
CC(C)Oc1cccc(-c2c[nH]c3ccc(-c4nnc(N)o4)cc23)n1 [Example 87, 5-(3-(6-(1-methylethoxy)-2-pyridinyl)-1H-indol-5-yl)-1,3,4-oxadiazol-2-amine] | 4.15 nM | 1.11 nM | 5.46 nM |  |  |  |  | 45.1 nM | 823 nM
Nc1nnc(-c2ccc3[nH]cc(-c4cncc(N5CCC(F)(F)C5)n4)c3c2)o1 [Example 88, 5-(3-(6-(3,3-difluoro-1-pyrrolidinyl)-2-pyrazinyl)-1H-indol-5-yl)-1,3,4-oxadiazol-2-amine] | 1.92 nM | 1.6 nM | 6.43 nM |  |  |  |  | 40.7 nM | 464 nM

More lines, main results first:

IC50 [2] | IC50 ([1]; Pim-3 enzyme assay) | IC50 ([3]; Pim-2 enzyme assay) | SMILES | IC50 [1] | IC50 [3] | IC50 [4, 6] | IC50 ([5]; U2OS) | IC50 ([4]; read-out: U2OS Pim1_Cell_IC50) | IC50 ([5]; U2OS cells, Pim-2 transfected)
2.11 nM | 1.83 nM | 4.77 nM | Nc1nnc(-c2ccc3[nH]cc(-c4cncc(N5CCCCC5)n4)c3c2)o1 [Example 89, 5-(3-(6-(1-piperidinyl)-2-pyrazinyl)-1H-indol-5-yl)-1,3,4-oxadiazol-2-amine] |  |  | 59.9 nM |  |  | 692 nM
8.91 nM | 6.46 nM | 13.4 nM | Nc1nnc(-c2ccc3[nH]cc(-c4cncc(N5CCOCC5)n4)c3c2)o1 [Example 90, 5-(3-(6-(4-morpholinyl)-2-pyrazinyl)-1H-indol-5-yl)-1,3,4-oxadiazol-2-amine] |  |  |  |  | 374 nM | 5420 nM
1.96 nM | 2.21 nM | 1.07 nM | C[C@H]1COCCN1c1ccnc(-c2c[nH]c3ccc(-c4nnc(N)o4)cc23)n1 [Example 91, 5-(3-(4-((3S)-3-methyl-4-morpholinyl)-2-pyrimidinyl)-1H-indol-5-yl)-1,3,4-oxadiazol-2-amine] |  |  |  |  | 221 nM | 1050 nM
5.19 nM | 0.998 nM | 0.984 nM | Nc1nnc(-c2ccc3[nH]cc(-c4nccc(C5CC5)n4)c3c2)o1 [Example 94, 5-(3-(4-cyclopropyl-2-pyrimidinyl)-1H-indol-5-yl)-1,3,4-oxadiazol-2-amine] |  |  | 75.2 nM |  |  | 280 nM
6.42 nM | 1.22 nM | 1.7 nM | CC1CCCN1c1ccnc(-c2c[nH]c3ccc(-c4nnc(N)o4)cc23)n1 (stereo not drawn) [Example 97, 5-(3-(4-(2-methyl-1-pyrrolidinyl)-2-pyrimidinyl)-1H-indol-5-yl)-1,3,4-oxadiazol-2-amine] |  |  |  |  | 100 nM | 315 nM
4.34 nM | 1.59 nM | 4.85 nM | Nc1nnc(-c2ccc3[nH]cc(-c4cncc(C5CC5)n4)c3c2)o1 [Example 98, 5-(3-(6-cyclopropyl-2-pyrazinyl)-1H-indol-5-yl)-1,3,4-oxadiazol-2-amine] |  |  |  |  | 85.7 nM | 721 nM
6.77 nM | 12.4 nM | 12.9 nM | Nc1nnc(-c2ccc3[nH]cc(-c4cncc(O[C@@H]5CCCNC5)n4)c3c2)o1 [Example 99, 5-(3-(6-((3R)-3-piperidinyloxy)-2-pyrazinyl)-1H-indol-5-yl)-1,3,4-oxadiazol-2-amine] |  |  | 12200 nM |  |  | > 31600 nM
1.16 nM | 0.668 nM | 2.07 nM | Nc1nnc(-c2ccc3[nH]cc(-c4cncc(NCC5CC5)n4)c3c2)o1 [Example 100, 6-(5-(5-amino-1,3,4-oxadiazol-2-yl)-1H-indol-3-yl)-N-(cyclopropylmethyl)-2-pyrazinamine] |  |  |  |  | 41.7 nM | 551 nM
1.5 nM | 0.901 nM | 4.03 nM | CC(C)Nc1cncc(-c2c[nH]c3ccc(-c4nnc(N)o4)cc23)n1 [Example 101, 6-(5-(5-amino-1,3,4-oxadiazol-2-yl)-1H-indol-3-yl)-N-(1-methylethyl)-2-pyrazinamine] |  |  | 66.4 nM |  |  | 809 nM
6.9 nM | 1.67 nM | 2.24 nM | CC(C)Nc1ccnc(-c2c[nH]c3ccc(-c4nnc(N)o4)cc23)n1 [Example 103, 2-(5-(5-amino-1,3,4-oxadiazol-2-yl)-1H-indol-3-yl)-N-(1-methylethyl)-4-pyrimidinamine] |  |  |  |  | 739 nM | 1220 nM
15.2 nM | 5.69 nM | 6.39 nM | Nc1nnc(-c2ccc3[nH]cc(-c4nccc(Oc5ccccc5)n4)c3c2)o1 [Example 106, 5-(3-(4-phenoxy-2-pyrimidinyl)-1H-indol-5-yl)-1,3,4-oxadiazol-2-amine] |  |  |  |  | 155 nM | 1190 nM
9.41 nM | 2.07 nM | 3.1 nM | Nc1nnc(-c2ccc3[nH]cc(-c4nccc(Nc5ccccc5)n4)c3c2)o1 [Example 108, 2-(5-(5-amino-1,3,4-oxadiazol-2-yl)-1H-indol-3-yl)-N-phenyl-4-pyrimidinamine] |  |  |  |  | 711 nM | 1410 nM
9.23 nM | 5.36 nM | 14 nM | Nc1nnc(-c2ccc3[nH]cc(-c4cncc(-c5ccccc5)n4)c3c2)o1 [Example 115, 5-(3-(6-phenyl-2-pyrazinyl)-1H-indol-5-yl)-1,3,4-oxadiazol-2-amine] |  |  |  |  | 105 nM | > 31600 nM
15.2 nM | 7.81 nM | 19.6 nM | Nc1nnc(-c2ccc3[nH]cc(-c4cncc(-c5ccccc5F)n4)c3c2)o1 [Example 116, 5-(3-(6-(2-fluorophenyl)-2-pyrazinyl)-1H-indol-5-yl)-1,3,4-oxadiazol-2-amine] |  |  | 224 nM |  |  | > 31600 nM
